Earlier results, collected in article PMC3470887, “Protegrin-1 Inhibits Dengue NS2B-NS3 Serine Protease and Viral Replication in MK2 Cells” (Journal of Biomedicine and Biotechnology, 2012).

Settings: mouse, iv; cited from earlier work

CC(C)C[C@H](NC(=O)[C@H](CCCNC(=N)N)NC(=O)CNC(=O)CNC(=O)[C@@H](N)CCCNC(=N)N)C(=O)N[C@H]1CSSC[C@@H](C(=O)N[C@H](C(=O)NCC(=O)N[C@@H](CCCNC(=N)N)C(N)=O)C(C)C)NC(=O)[C@H](C(C)C)NC(=O)[C@@H]2CSSC[C@H](NC(=O)[C@H](Cc3ccc(O)cc3)NC1=O)C(=O)N[C@@H](CCCNC(=N)N)C(=O)N[C@@H](CCCNC(=N)N)C(=O)N[C@@H](CCCNC(=N)N)C(=O)N[C@@H](Cc1ccccc1)C(=O)N2 [PG-1]
dose with low in vivo toxicity: up to 8 mg/kg
